Results published in ChEMBL document CHEMBL1201862, “PubChem BioAssay data set” (2004).
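Protocol summary: plate cells (96-well), add compound at 5 concentrations, incubate 48 h, interpolate endpoints linearly. At the GI50, growth is halved.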 Calls of active or inactive are those of the source. Rule as the data show it: active = GI50 up to about 1.1 µM and inactive = higher.

Key:
Test in all cases: NCI-60 cell line screen, 48 h
OVCAR-3 = system: OVCAR-3
M14 = system: M14
NCI-H226 = system: NCI-H226
CCRF-CEM = system: CCRF-CEM
SK-MEL-28 = system: SK-MEL-28
OVCAR-8 = system: OVCAR-8
PC-3 = system: PC-3
HOP-62 = system: HOP-62
HOP-92 = system: HOP-92
SW-620 = system: SW-620
DU-145 = system: DU-145
T47D = system: T47D
NCI-H460 = system: NCI-H460
MDA-MB-231 = system: MDA-MB-231
MCF7 = system: MCF7
MDA-MB-435 = system: MDA-MB-435
SNB-19 = system: SNB-19
OVCAR-4 = system: OVCAR-4
SR = system: SR
SNB-75 = system: SNB-75
ACHN = system: ACHN
RPMI-8226 = system: RPMI-8226
Malme-3M = system: Malme-3M
LOX IMVI = system: LOX IMVI
COLO 205 = system: COLO 205
SN12C = system: SN12C
RXF 393 = system: RXF 393
NCI-H23 = system: NCI-H23
U-251 = system: U-251
SF-268 = system: SF-268
SK-OV-3 = system: SK-OV-3
UO-31 = system: UO-31
786-0 = system: 786-0
K562 = system: K562
UACC-257 = system: UACC-257
HCC 2998 = system: HCC 2998
NCI/ADR-RES = system: NCI/ADR-RES
HCT-116 = system: HCT-116
BT-549 = system: BT-549
UACC-62 = system: UACC-62
HCT-15 = system: HCT-15
SK-MEL-5 = system: SK-MEL-5
HT-29 = system: HT-29
CAKI-1 = system: CAKI-1
TK-10 = system: TK-10
MDA-N = system: MDA-N
OVCAR-5 = system: OVCAR-5
Hs-578T = system: Hs-578T
A498 = system: A498
NCI-H522 = system: NCI-H522
A549 = system: A549
KM12 = system: KM12
EKVX = system: EKVX
HL-60 = system: HL-60
SK-MEL-2 = system: SK-MEL-2
IGROV-1 = system: IGROV-1
SF-539 = system: SF-539
MOLT-4 = system: MOLT-4
SF-295 = system: SF-295

With `O=C(O)C(Cc1cccs1)C(=O)O` the GI50 (OVCAR-3) was > 100 µM (inactive), the GI50 (M14) was > 100 µM (inactive) and the GI50 (NCI-H226) was > 100 µM (inactive). The GI50 (CCRF-CEM) was > 100 µM (inactive), the GI50 (SK-MEL-28) was > 100 µM (inactive) and the GI50 (OVCAR-8) was > 100 µM (inactive). The GI50 (PC-3) was > 100 µM (inactive), the GI50 (HOP-62) was > 100 µM (inactive) and the GI50 (HOP-92) was > 100 µM (inactive). For the same compound, the GI50 (SW-620) was > 100 µM (inactive), the GI50 (DU-145) was > 100 µM (inactive) and the GI50 (T47D) was > 100 µM (inactive). For the same compound, the GI50 (NCI-H460) was > 100 µM (inactive), the GI50 (MDA-MB-231) was > 100 µM (inactive) and the GI50 (MCF7) was > 100 µM (inactive). For the same compound, the GI50 (MDA-MB-435) was > 100 µM (inactive), the GI50 (SNB-19) was > 100 µM (inactive) and the GI50 (OVCAR-4) was > 100 µM (inactive). The GI50 (SR) was > 100 µM (inactive), the GI50 (SNB-75) was > 100 µM (inactive) and the GI50 (ACHN) was > 100 µM (inactive). The GI50 (RPMI-8226) was > 100 µM (inactive), the GI50 (Malme-3M) was > 100 µM (inactive) and the GI50 (LOX IMVI) was > 100 µM (inactive). For the same compound, the GI50 (COLO 205) was > 100 µM (inactive), the GI50 (SN12C) was > 100 µM (inactive) and the GI50 (RXF 393) was > 100 µM (inactive). For the same compound, the GI50 (NCI-H23) was > 100 µM (inactive), the GI50 (U-251) was > 100 µM (inactive) and the GI50 (SF-268) was > 100 µM (inactive). The GI50 (SK-OV-3) was > 100 µM (inactive), the GI50 (UO-31) was > 100 µM (inactive) and the GI50 (786-0) was > 100 µM (inactive). For the same compound, the GI50 (K562) was > 100 µM (inactive), the GI50 (UACC-257) was > 100 µM (inactive) and the GI50 (HCC 2998) was > 100 µM (inactive). The GI50 (NCI/ADR-RES) was > 100 µM (inactive), the GI50 (HCT-116) was > 100 µM (inactive) and the GI50 (BT-549) was > 100 µM (inactive). The GI50 (UACC-62) was > 100 µM (inactive), the GI50 (HCT-15) was greater than 100 µM and the GI50 (SK-MEL-5) was > 100 µM (inactive). The GI50 (HT-29) was > 100 µM (inactive), the GI50 (CAKI-1) was > 100 µM (inactive) and the GI50 (TK-10) was > 100 µM (inactive). The GI50 (MDA-N) was > 100 µM (inactive), the GI50 (OVCAR-5) was > 100 µM (inactive) and the GI50 (Hs-578T) was > 100 µM (inactive). For the same compound, the GI50 (A498) was > 100 µM (inactive), the GI50 (NCI-H522) was > 100 µM (inactive) and the GI50 (A549) was > 100 µM (inactive). For the same compound, the GI50 (KM12) was > 100 µM (inactive), the GI50 (EKVX) was > 100 µM (inactive) and the GI50 (HL-60) was > 100 µM (inactive). The GI50 (SK-MEL-2) was > 100 µM (inactive) and the GI50 (IGROV-1) was > 100 µM (inactive).

For `C[C@]12CC[C@H](OC(=O)Cc3ccc(N(CCCl)CCCl)cc3)CC1=CC[C@@H]1[C@@H]2CC[C@]2(C)C(=O)CC[C@@H]12`, the GI50 (OVCAR-3) was > 100 µM (inactive), the GI50 (M14) was > 100 µM (inactive) and the GI50 (SF-539) was > 100 µM (inactive). The GI50 (NCI-H226) was > 100 µM (inactive), the GI50 (SK-MEL-28) was > 100 µM (inactive) and the GI50 (OVCAR-8) was > 100 µM (inactive). For the same compound, the GI50 (PC-3) was > 100 µM (inactive), the GI50 (HOP-62) was > 100 µM (inactive) and the GI50 (HOP-92) was > 100 µM (inactive). The GI50 (SW-620) was > 100 µM (inactive), the GI50 (DU-145) was > 100 µM (inactive) and the GI50 (T47D) was 92.5 µM (inactive). The GI50 (NCI-H460) was > 100 µM (inactive), the GI50 (MDA-MB-231) was > 100 µM (inactive) and the GI50 (MCF7) was > 100 µM (inactive). The GI50 (MDA-MB-435) was > 100 µM (inactive), the GI50 (SNB-19) was > 100 µM (inactive) and the GI50 (SR) was 3.61 µM (inactive). For the same compound, the GI50 (SNB-75) was > 100 µM (inactive), the GI50 (MOLT-4) was > 100 µM (inactive) and the GI50 (ACHN) was > 100 µM (inactive). For the same compound, the GI50 (RPMI-8226) was > 100 µM (inactive), the GI50 (Malme-3M) was > 100 µM (inactive) and the GI50 (LOX IMVI) was > 100 µM (inactive). For the same compound, the GI50 (COLO 205) was > 100 µM (inactive), the GI50 (SN12C) was > 100 µM (inactive) and the GI50 (RXF 393) was > 100 µM (inactive). The GI50 (NCI-H23) was > 100 µM (inactive), the GI50 (U-251) was > 100 µM (inactive) and the GI50 (SF-268) was > 100 µM (inactive). The GI50 (UO-31) was > 100 µM (inactive), the GI50 (K562) was > 100 µM (inactive) and the GI50 (UACC-257) was > 100 µM (inactive). For the same compound, the GI50 (HCC 2998) was > 100 µM (inactive), the GI50 (NCI/ADR-RES) was > 100 µM (inactive) and the GI50 (BT-549) was > 100 µM (inactive). For the same compound, the GI50 (HCT-15) was greater than 100 µM, the GI50 (SK-MEL-5) was > 100 µM (inactive) and the GI50 (HT-29) was > 100 µM (inactive). The GI50 (CAKI-1) was > 100 µM (inactive), the GI50 (TK-10) was > 100 µM (inactive) and the GI50 (MDA-N) was > 100 µM (inactive). The GI50 (OVCAR-5) was > 100 µM (inactive), the GI50 (Hs-578T) was > 100 µM (inactive) and the GI50 (A498) was > 100 µM (inactive). For the same compound, the GI50 (NCI-H522) was > 100 µM (inactive), the GI50 (A549) was > 100 µM (inactive) and the GI50 (KM12) was > 100 µM (inactive). The GI50 (EKVX) was > 100 µM (inactive), the GI50 (HL-60) was > 100 µM (inactive) and the GI50 (SK-MEL-2) was > 100 µM (inactive). The GI50 (IGROV-1) was > 100 µM (inactive).

With `O=C(O)[C@@H]1[C@H](C(=O)O)[C@H](C(=O)O)C[C@@H]1C(=O)O` the GI50 (OVCAR-3) was > 100 µM (inactive), the GI50 (M14) was > 100 µM (inactive) and the GI50 (SF-539) was > 100 µM (inactive). For the same compound, the GI50 (NCI-H226) was > 100 µM (inactive), the GI50 (SK-MEL-28) was > 100 µM (inactive) and the GI50 (OVCAR-8) was > 100 µM (inactive). For the same compound, the GI50 (PC-3) was > 100 µM (inactive), the GI50 (HOP-62) was > 100 µM (inactive) and the GI50 (HOP-92) was > 100 µM (inactive). The GI50 (SW-620) was > 100 µM (inactive), the GI50 (DU-145) was > 100 µM (inactive) and the GI50 (T47D) was > 100 µM (inactive). For the same compound, the GI50 (NCI-H460) was > 100 µM (inactive), the GI50 (MDA-MB-231) was > 100 µM (inactive) and the GI50 (MCF7) was > 100 µM (inactive). The GI50 (MDA-MB-435) was > 100 µM (inactive), the GI50 (SNB-19) was > 100 µM (inactive) and the GI50 (OVCAR-4) was > 100 µM (inactive). The GI50 (SR) was > 100 µM (inactive), the GI50 (SNB-75) was > 100 µM (inactive) and the GI50 (MOLT-4) was > 100 µM (inactive). The GI50 (ACHN) was > 100 µM (inactive), the GI50 (RPMI-8226) was > 100 µM (inactive) and the GI50 (Malme-3M) was > 100 µM (inactive). For the same compound, the GI50 (LOX IMVI) was > 100 µM (inactive), the GI50 (COLO 205) was > 100 µM (inactive) and the GI50 (SN12C) was > 100 µM (inactive). The GI50 (RXF 393) was > 100 µM (inactive), the GI50 (NCI-H23) was > 100 µM (inactive) and the GI50 (U-251) was > 100 µM (inactive). The GI50 (SF-268) was > 100 µM (inactive), the GI50 (SK-OV-3) was > 100 µM (inactive) and the GI50 (UO-31) was > 100 µM (inactive). The GI50 (786-0) was > 100 µM (inactive), the GI50 (K562) was > 100 µM (inactive) and the GI50 (UACC-257) was > 100 µM (inactive). The GI50 (SF-295) was > 100 µM (inactive), the GI50 (NCI/ADR-RES) was > 100 µM (inactive) and the GI50 (HCT-116) was > 100 µM (inactive). The GI50 (BT-549) was > 100 µM (inactive), the GI50 (UACC-62) was > 100 µM (inactive) and the GI50 (HCT-15) was greater than 100 µM. The GI50 (SK-MEL-5) was > 100 µM (inactive), the GI50 (HT-29) was > 100 µM (inactive) and the GI50 (CAKI-1) was > 100 µM (inactive). For the same compound, the GI50 (TK-10) was > 100 µM (inactive), the GI50 (MDA-N) was > 100 µM (inactive) and the GI50 (OVCAR-5) was > 100 µM (inactive). The GI50 (Hs-578T) was > 100 µM (inactive), the GI50 (A498) was > 100 µM (inactive) and the GI50 (NCI-H522) was > 100 µM (inactive). The GI50 (A549) was > 100 µM (inactive), the GI50 (KM12) was > 100 µM (inactive) and the GI50 (EKVX) was > 100 µM (inactive). The GI50 (SK-MEL-2) was > 100 µM (inactive) and the GI50 (IGROV-1) was > 100 µM (inactive).
